{
  "source": "paper PMC3403540",
  "about": "“Active Hydrophilic Components of the Medicinal Herb Salvia miltiorrhiza (Danshen) Potently Inhibit Organic Anion Transporters 1 (Slc22a6) and 3 (Slc22a8)” (Evidence-based Complementary and Alternative Medicine : eCAM, 2012)",
  "key": {"hOAT1": {"tested_on": "hOAT1", "parameters": "method as in PMID 15870380", "details": "cited from earlier work"}, "mOat1 [1]": {"molecular_target": "T1, mOat1 (Mus musculus, UniProt Q8VC69)", "T1 construct": "expressed in transfected cells; host or cells: CHO (Chinese hamster ovary), stably transfected (CHO-mOat1)", "T1 sequence (Q8VC69 1-545)": "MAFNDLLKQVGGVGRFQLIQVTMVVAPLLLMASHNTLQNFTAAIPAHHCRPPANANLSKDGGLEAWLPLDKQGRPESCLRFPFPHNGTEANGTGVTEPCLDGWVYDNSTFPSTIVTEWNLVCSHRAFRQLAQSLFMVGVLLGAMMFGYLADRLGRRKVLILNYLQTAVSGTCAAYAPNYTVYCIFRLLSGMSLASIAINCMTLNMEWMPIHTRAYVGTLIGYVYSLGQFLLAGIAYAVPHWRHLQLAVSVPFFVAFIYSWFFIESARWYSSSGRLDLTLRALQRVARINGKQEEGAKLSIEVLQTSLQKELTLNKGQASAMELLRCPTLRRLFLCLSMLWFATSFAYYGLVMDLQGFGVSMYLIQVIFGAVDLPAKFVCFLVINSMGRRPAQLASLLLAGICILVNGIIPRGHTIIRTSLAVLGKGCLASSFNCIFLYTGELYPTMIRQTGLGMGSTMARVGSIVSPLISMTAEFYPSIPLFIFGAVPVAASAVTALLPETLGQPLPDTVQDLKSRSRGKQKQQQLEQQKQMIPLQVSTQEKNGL", "parameters": "method as in PMID 21546538", "details": "cited from earlier work"}, "mOat3 [2]": {"molecular_target": "T2, mOat3 (Mus musculus, UniProt O88909)", "T2 construct": "expressed in transfected cells; host or cells: CHO (Chinese hamster ovary), stably transfected (CHO-mOat3)", "T2 sequence (O88909 1-537)": "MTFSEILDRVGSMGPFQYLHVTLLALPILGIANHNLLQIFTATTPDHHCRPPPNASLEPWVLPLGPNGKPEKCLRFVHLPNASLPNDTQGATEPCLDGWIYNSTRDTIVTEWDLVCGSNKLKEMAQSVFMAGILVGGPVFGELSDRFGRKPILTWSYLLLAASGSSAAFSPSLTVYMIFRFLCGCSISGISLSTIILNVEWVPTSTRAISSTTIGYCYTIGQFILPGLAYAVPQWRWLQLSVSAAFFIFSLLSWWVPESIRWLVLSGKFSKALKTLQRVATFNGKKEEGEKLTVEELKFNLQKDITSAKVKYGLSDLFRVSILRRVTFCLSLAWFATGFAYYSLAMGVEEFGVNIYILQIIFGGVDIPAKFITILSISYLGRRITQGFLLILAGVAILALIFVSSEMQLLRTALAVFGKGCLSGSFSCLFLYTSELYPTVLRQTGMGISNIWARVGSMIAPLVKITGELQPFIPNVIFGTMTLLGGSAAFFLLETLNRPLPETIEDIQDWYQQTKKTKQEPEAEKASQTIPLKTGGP", "parameters": "method as in PMID 21546538", "details": "cited from earlier work"}, "[3]": {"details": "rats; cited from earlier work"}, "mOat3 [4]": {"molecular_target": "T2, mOat3", "assay": "Inhibition of mOat3-mediated [3H]ES uptake in CHO-mOat3 cells (cell accumulation assay)", "type": "cell-based, murine", "details": "for inhibition at 1000 µM: read-out: inhibition of mOat3-mediated ES uptake", "procedure": "(§1) Derivation of the stably transfected Chinese hamster ovary (CHO) cell lines expressing mOat1 (CHO-mOat1), mOat3 (CHO-mOat3), and the empty vector (FRT) transfected control cell line (CHO-FRT) was described previously.\n(§2) Cell transport assay procedures were adapted from those previously published. In brief, 2 × 10^5 cells/well were seeded in 24-well tissue culture plates and grown in the absence of antibiotics for 48 hr. On the day of the experiment, cells were equilibrated with transport buffer for 10 min (500 μL of Hanks' balanced salt solution containing 10 mM HEPES, pH 7.4). […] After incubation, cells were immediately rinsed three times with ice-cold transport buffer, lysed, and analyzed via liquid scintillation counting. Uptake values were normalized to corresponding total protein content in cell lysates as determined by the Bradford method. Substrate accumulation is reported as picomoles of substrate per milligram protein. […] Kinetic calculations were performed using GraphPad Prism Software version 5.0 (GraphPad Software Inc., San Diego, CA, USA). Michaelis constant (K m) values were calculated by nonlinear regression using the Michaelis-Menten model. Mode of inhibition was identified by using mixed model inhibition analysis as follows: (1) Vmax Apparent =Vmax/(1+[I]/(α×Ki)),Km Apparent=Km1+[I]/Ki/(1+[I]/(α×Ki)),Y=Vmax Apparent×x/Km Apparent+x, where V max, K i, and I represent the maximum transport velocity without inhibitor, the inhibition constant generated from the data set under analysis, and the concentration of inhibitor, respectively. In this study, three curves were constructed (no inhibitor, plus two selected inhibitor concentrations) with uptake of substrate plotted as a function of its concentration for each condition. […] The parameter, α, can then be used to determine the mode of inhibition. When α is very large (α > 1), it indicates competitive inhibition. Otherwise, it indicates noncompetitive inhibition (α = 1) or uncompetitive inhibition (0 < α < 1). To estimate K i values, IC50 values were calculated using nonlinear regression and inserted into the Cheng-Prusoff equation: K i = IC50/(1 + [Substrate]/K m). Results were confirmed by repeating all experiments at least three times with triplicate wells for each data point in every experiment.\nFigure 2 Inhibition profile of mOat1 and mOat3. […] (5 μM) by LSA, PCA, RMA, SAA, SAB, TSL, and probenecid (1000 μM) was measured in the CHO-mOat1 cells (10 min). […] (b) Inhibition of mOat3-mediated uptake of [^3H]ES (1 μM) by LSA, PCA, RMA, SAA, SAB, TSL, and probenecid (1000 μM) was measured in the CHO-mOat3 cells (10 min). […] Values are mean ± S.D. of triplicate values. ***denotes P < 0.001 as determined by one-way ANOVA followed by Dunnett's t-test.\nFigure 5 K i determination for LSA, RMA, and SAA in the CHO-mOat3 cell line. One minute uptake of [^3H]ES (1 μM) in CHO-mOat3 cells was measured in the presence of increasing concentrations (10^−7 to 4 × 10^−4 M) of LSA, RMA, and SAA. Data were corrected for nonspecific background measured in the CHO-FRT cells prior to kinetic analysis. K i values were determined with non-linear regression and the “one-site competition” model using GraphPad Prism software. Graphs shown are from representative experiments with values plotted as mean ± S.D. (n = 3)."}, "mOat3 [5]": {"molecular_target": "T2, mOat3", "parameters": "method as in PMID 19953504, PMID 17553798, PMID 18973812", "details": "read-out: K i for mOat3; cited from earlier work"}, "mOat1 [6]": {"molecular_target": "T1, mOat1", "assay": "Inhibition of mOat1-mediated [3H]PAH uptake in CHO-mOat1 cells (cell accumulation assay)", "type": "cell-based, murine", "details": "read-out: inhibition of mOat1-mediated PAH uptake", "procedure": "as §1\nas §2, with “Mode of inhibition was identified by using mixed model inhibition analysis as follows: (1) Vmax Apparent =Vmax/(1+[I]/(α×Ki)),Km Apparent=Km1+[I]/Ki/(1+[I]/(α×Ki)),Y=Vmax Apparent×x/Km Apparent+x, where V max, K i, and I represent the maximum transport velocity without inhibitor, the inhibition constant generated from the data set under analysis, and the concentration of inhibitor, respectively.” left out, “Otherwise, it indicates noncompetitive inhibition (α = 1) or uncompetitive inhibition (0 < α < 1). To estimate K i values, IC50 values were calculated using nonlinear regression and inserted into the Cheng-Prusoff equation: K i = IC50/(1 + [Substrate]/K m).” left out\nFigure 3 Michaelis-Menten kinetics of PAH transport in CHO-mOat1 cells. In order to calculate K i values for mOat1, the K m value for PAH needed to be determined in the CHO-mOat1 cell system. […] The corrected curve (closed circles) was obtained by subtracting the nonspecific background uptake as measured in the CHO-FRT cells from CHO-mOat1 accumulation to allow analysis of mOat1-mediated activity. Experiments were repeated three times in triplicate, and Michaelis constant (K m) values were calculated by nonlinear regression using the Michaelis-Menten model. […] Graph shown is from a representative experiment with values plotted as mean ± S.D. (n = 3).\nFigure 2 Inhibition profile of mOat1 and mOat3. […] (b) Inhibition of mOat3-mediated uptake of [^3H]ES (1 μM) by LSA, PCA, RMA, SAA, SAB, TSL, and probenecid (1000 μM) was measured in the CHO-mOat3 cells (10 min). […] Values are mean ± S.D. of triplicate values. ***denotes P < 0.001 as determined by one-way ANOVA followed by Dunnett's t-test.\nFigure 4 K i determination for LSA, RMA, and SAA in the CHO-mOat1 cell line. […] (5 μM) in CHO-mOat1 cells was measured in the presence of increasing concentrations (10^−7 to 5 × 10^−4 M) of LSA, RMA, and SAA. Data were corrected for nonspecific background measured in the CHO-FRT cells prior to kinetic analysis. K i values were determined with non-linear regression and the “one-site competition” model using GraphPad Prism software. Graphs shown are from representative experiments with values plotted as mean ± S.D. (n = 3)."}, "mOat3 [7]": {"molecular_target": "T2, mOat3", "parameters": "method as in PMID 18381565", "details": "CHO-mOat3 cells, determined previously; cited from earlier work"}, "[8]": {"details": "1 mM (1000 μM) inhibitor, 1 μM [3H]ES, 10 min, CHO-mOat3 cells"}},
  "note": "Where a name gives a salt, the structure may show the parent alone. Read-outs that look alike come from different tables or passages of the source.",
  "data": [
    {"compound": "O=c1oc2c(O)c(O)cc3c(=O)oc4c(O)c(O)cc1c4c23", "note": "[ellagic acid]", "values": [
      {"measurement": "IC50", "setting": "hOAT1", "result": 207, "unit": "nM"}
    ]},
    {"compound": "COc1cccc2c1cc([N+](=O)[O-])c1c(C(=O)O)cc3c(c12)OCO3", "note": "[aristolochic acid]", "values": [
      {"measurement": "K m as substrate for mOat1", "setting": "mOat1 [1]", "result": 0.79, "unit": "µM"},
      {"measurement": "K m as substrate for mOat3", "setting": "mOat3 [2]", "result": 0.514, "unit": "µM"}
    ]},
    {"compound": "salvianolic acid B [SAB]", "values": [
      {"measurement": "increase of AUC on spiking additional SAA into Danshen preparations", "setting": "[3]", "result": 82.4, "unit": "%"},
      {"measurement": "reduction of clearance on spiking additional SAA into Danshen preparations", "setting": "[3]", "result": 46.8, "unit": "%"},
      {"measurement": "inhibition of mOat3-mediated ES uptake", "setting": "mOat3 [4]; [8]", "result": "approximately 53%"}
    ]},
    {"compound": "CCCN(CCC)S(=O)(=O)c1ccc(C(=O)O)cc1", "note": "[probenecid, reference compound]", "values": [
      {"measurement": "Ki", "setting": "mOat3 [5]", "result": 4600, "unit": "nM"},
      {"measurement": "inhibition at 1000 µM", "setting": "mOat3 [4]; [8]", "result": "> 91", "unit": "%"}
    ]},
    {"compound": "O=C(O)c1ccc(O)c(O)c1", "note": "[PCA, protocatechuic acid]", "values": [
      {"measurement": "inhibition at 1000 µM", "setting": "mOat1 [6]", "result": "> 95", "unit": "%"},
      {"measurement": "inhibition at 1000 µM", "setting": "mOat3 [4]", "result": "> 91", "unit": "%"}
    ]},
    {"compound": "C[C@]12CC[C@@H]3c4ccc(OS(=O)(=O)O)cc4CC[C@H]3[C@@H]1CCC2=O", "note": "[ES, estrone sulfate]", "values": [
      {"measurement": "K m of ES on mOat3", "setting": "mOat3 [7]", "result": "12.2 ± 4.8", "unit": "µM"}
    ]}
  ]
}
